From patent publication US4122184A, “Benzimidazole insecticides” (priority 1977, dated 1978) come the findings set out here.

One assay relates to Melon Aphid. Nature of the assay: Melon Aphid Test. It is filed as in vivo, Aphis gossypii (Hemiptera). The conditions noted are these: 24 h. The source says: Four blue hubbard squash seeds are planted per container in vermiculite and the containers watered from the bottom. After 6 days, the two weakest plants are cut off and one cotyledon and the primary leaves are removed from each of the two remaining plants. The remaining cotyledon is infested with 100 melon aphids from a stock colony by pinning the cotyledon against an aphid-infested squash cotyledon from the colony and allowing the aphids to transfer. After transfer, the colony leaf is removed. Forty-eight hours later, the infested leaves are sprayed to wetting with formulations containing graded amounts of the insecticide using a DeVilbiss atomizer at 10 psi held at 12-15 inches from the plant. Controls consist of two infested, unsprayed squash plants and two infested plants sprayed to wetting with a formulation containing 100 ppm malathion as a reference standard. The mortality is estimated 24 hours after spraying by observation using a 10 power dissecting microscope. The same rating scale is used as before.

The subject of a further assay is Milkweed Bug. Put plainly: Milkweed Bug Test. The assay is classed as in vivo, Oncopeltis fasciatus (Hemiptera). The conditions noted are these: 48 h. The gist of the method:
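Ten chilled adult milkweed bugs per cage sprayed with 5 ml test formulation at 10 psi, then fed and watered. Mortality, counting moribund as dead, scored 48 h after spraying; 500 ppm malathion as reference, unsprayed cages as controls.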

For the next assay, the system named is House Fly. Nature of the assay: Housefly (Contact) Test. The assay is classed as in vivo, Musca domestica (Diptera). The conditions noted are these: 24 h.
In assay [1] the test system is Alfalfa Weevil Larvae. Put plainly: Field trial, stomach poison test. The assay is classed as in vivo. The gist of the method:
(§1)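 Leaves from infested plants sprayed (10 psi) or dipped in test compound at several concentrations, air-dried, then five or ten insects placed per dish, one or two replicates. Mortality scored 0 to 9 at 24, 48 and 72 h, averaged per concentration.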

Assay [2] concerns Alfalfa Weevil Larvae. Put plainly: Field trial, contact poison test. It is filed as in vivo. The gist of the method: (§2)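 Each infested plant sits in a water-filled bottle to prevent wilting, and the test compound is then atomized onto it at 10 psi at various concentrations. Falling dead insects are collected, and mortality is rated 0 (0-10%) to 9 (91-100%) at up to 72 h.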
Assay [3] concerns Alfalfa Weevil Larvae. Nature of the assay: Field trial, topical application. The assay is classed as in vivo. The method, then:
The results are read at 24, 48, and 72 hours when applicable. The rating scale is 0 to 9 where 0 = 0-10 percent and 9 = 91-100 percent mortality.
In a variation of the above test, 1 microliter of a test solution containing a predetermined number of micrograms of benzimidazole was applied directly to larvae or adult insects.
Using the above methods, field trials were carried out against species of 5 orders of insects. The results, which are summarized in the following tables, give the average mortality for the particular insect with a given benzimidazole for each concentration employed. […] These tables contain all results obtained during the summer trials.

Another assay deals with Boll Weevil. Nature of the assay: Field trial (first summer), topical. It is filed as in vivo, Anthonomus grandis. The conditions noted are these: .078125 μg/μl. The gist of the method: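 Field trial from the first summer in which 1 µl of test solution holding a set number of micrograms of benzimidazole was applied topically to larvae or adult insects. Mortality at a given route and concentration was scored on a 0–9 scale.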

The subject of the next assay is Aphids - Apple. Nature of the assay: Field trial, stomach poison test. It is filed as in vivo. The gist of the method:
as §1

In a further assay the test system is Aphids - Tulip Tree. Put plainly: Field trial, stomach poison test. It is filed as in vivo. The gist of the method: as §1
Another assay deals with Meadow Spittlebug. Put plainly: Field trial, stomach poison test. It is filed as in vivo. The gist of the method: as §1
For assay [4], the system named is Potato Flea Beetle Adults. Put plainly: Field trial, stomach poison test. It is filed as in vivo. The gist of the method:
as §1

Assay [5] relates to Potato Flea Beetle Adults. Nature of the assay: Field trial, contact poison test. The assay is classed as in vivo. The gist of the method: as §2
The test system of the next assay is Aphids - Sour Gum. Put plainly: Field trial, stomach poison test. It is filed as in vivo. The gist of the method: as §1

On to “mixture of benzyl 2,6-bis(trifluoromethyl)-4-nitro-1-benzimidazolecarboxylate and benzyl 2,5-bis(trifluoromethyl)-7-nitro-1-benzimidazolecarboxylate”, for which the mortality rating with Melon Aphid (100 ppm) is on record as 0 (0-10); in the assay with Melon Aphid (250 ppm), 5 (51-60); with Melon Aphid (500 ppm), 9 (91-100); in the assay on Melon Aphid (1000 ppm), 8 (81-90); in the assay with Milkweed Bug (10 ppm), 0 (0-10); in the assay on Milkweed Bug (25 ppm), 0 (0-10). Further, the mortality rating was 7 (71-80) in the assay on Milkweed Bug (50 ppm); 8 (81-90) in the assay on Milkweed Bug (250 ppm); 8.5 with Milkweed Bug (500 ppm); 9 (91-100) in the assay with Milkweed Bug (1000 ppm); 0 (0-10) with House Fly (10 ppm); 0 (0-10) in the assay with House Fly (25 ppm). Moreover, the mortality rating is 4 (41-50) with House Fly (50 ppm); 5.5 in the assay on House Fly (100 ppm); 9 (91-100) with House Fly (250 ppm); 9 (91-100) with House Fly (500 ppm); 9 (91-100) in the assay with House Fly (1000 ppm). In addition, the average mortality rating with Alfalfa Weevil Larvae [1] (125 ppm) is on record as 3; in the assay on Alfalfa Weevil Larvae [1] (250 ppm), 5; in the assay on Alfalfa Weevil Larvae [1] (500 ppm), 6; with Alfalfa Weevil Larvae [2] (500 ppm), 4; with Alfalfa Weevil Larvae [2] (750 ppm), 4; in the assay on Alfalfa Weevil Larvae [2] (1000 ppm), 6. Also, the average mortality rating was determined as 2 with Alfalfa Weevil Larvae [3] (0.03 μg/μl), 1 with Alfalfa Weevil Larvae [3] (0.07 μg/μl) and 4 with Alfalfa Weevil Larvae [3] (0.1 μg/μl). The insect mortality rating with Boll Weevil was 9 (91-100 percent mortality).

As for “mixture of N,N-dimethyl-4-nitro-2,6-bis(trifluoromethyl)thio-1-benzimidazolecarboxamide and N,N-dimethyl-7-nitro-2,5-bis(trifluoromethyl)thio-1-benzimidazolecarboxamide [P]”, the mortality rating is reported as 0 (0-10) in the assay on Melon Aphid (10 ppm); 1.5 in the assay with Melon Aphid (25 ppm); 4 (41-50) in the assay with Melon Aphid (100 ppm); 7 (71-80) with Melon Aphid (250 ppm); 7.5 in the assay on Melon Aphid (500 ppm); 4.5 in the assay with Melon Aphid (1000 ppm). Also, the mortality rating in the assay on Milkweed Bug (10 ppm) was 0 (0-10); with Milkweed Bug (25 ppm), 0 (0-10); with Milkweed Bug (50 ppm) it was 3.5; in the assay on Milkweed Bug (100 ppm), 4.5; in the assay on Milkweed Bug (250 ppm) it was 4 (41-50); in the assay with Milkweed Bug (500 ppm), 4 (41-50). The mortality rating was 2 (21-30) in the assay with Milkweed Bug (1000 ppm); 4.0 in the assay on House Fly (10 ppm); 8.5 in the assay on House Fly (25 ppm); 9 (91-100) with House Fly (50 ppm); 9 (91-100) in the assay on House Fly (100 ppm); 9 (91-100) in the assay with House Fly (250 ppm). Also, the mortality rating with House Fly (500 ppm) and in the assay on House Fly (1000 ppm) was 9 (91-100) throughout. In the assay on Boll Weevil, the insect mortality rating is given as 9 (91-100 percent mortality).

`CC(C)OC(=O)n1c(C(F)(F)F)nc2c([N+](=O)[O-])cc(C(F)(F)F)cc21` [I, isopropyl 2,6-bis(trifluoromethyl)-4-nitro-1-benzimidazolecarboxylate]: the mortality rating was found to be 8.5 with Melon Aphid (50 ppm) and 6.5 in the assay on Melon Aphid (250 ppm). The average mortality rating is 8 in the assay with Alfalfa Weevil Larvae [1] (125 ppm); 4 in the assay with Alfalfa Weevil Larvae [1] (250 ppm); 6 with Alfalfa Weevil Larvae [1] (500 ppm); 1 in the assay with Aphids - Apple (25 ppm); 5 with Aphids - Apple (50 ppm); 9 (91-100 percent mortality) with Aphids - Apple (100 ppm). Further, the average mortality rating in the assay on Aphids - Tulip Tree (25 ppm) was found to be 5; in the assay on Aphids - Tulip Tree (50 ppm), 5; with Aphids - Tulip Tree (100 ppm) it was 5; in the assay on Meadow Spittlebug (10 ppm), 2; with Meadow Spittlebug (25 ppm) it was 5; in the assay with Meadow Spittlebug (50 ppm) it was 3. For the same molecule, the average mortality rating is recorded as 6 in assay [4] (10 ppm); 8 in assay [4] (25 ppm); 8 in assay [4] (50 ppm); 9 (91-100 percent mortality) in [4] (100 ppm); 1 in the assay on Alfalfa Weevil Larvae [2] (500 ppm); 2 in the assay with Alfalfa Weevil Larvae [2] (750 ppm). Further, the average mortality rating with Alfalfa Weevil Larvae [2] (1000 ppm) is recorded as 1; in assay [5] (10 ppm), 9 (91-100 percent mortality); in assay [5] (25 ppm) it was 9 (91-100 percent mortality); in assay [5] (50 ppm), 9 (91-100 percent mortality); in [5] (100 ppm), 9 (91-100 percent mortality); in [5] (250 ppm), 9 (91-100 percent mortality). For the same molecule, the average mortality rating in the assay on Alfalfa Weevil Larvae [3] (0.03 μg/μl) was determined as 1; in the assay on Alfalfa Weevil Larvae [3] (0.07 μg/μl), 1; in the assay on Alfalfa Weevil Larvae [3] (0.1 μg/μl), 3.

Regarding “mixture of phenyl 2,6-bis(trifluoromethyl)-4-nitro-1-benzimidazolecarboxylate and phenyl 2,5-bis(trifluoromethyl)-1-benzimidazolecarboxylate”, the mortality rating in the assay on Melon Aphid (25 ppm) is reported as 0 (0-10); in the assay with Melon Aphid (50 ppm), 4 (41-50); in the assay on Melon Aphid (100 ppm), 8 (81-90); with Melon Aphid (250 ppm), 7 (71-80); in the assay on Melon Aphid (500 ppm), 8 (81-90); in the assay with Melon Aphid (1000 ppm), 6 (61-70). The mortality rating with Milkweed Bug (250 ppm) is 1 (11-20); with Milkweed Bug (500 ppm), 9 (91-100); in the assay with Milkweed Bug (1000 ppm), 9 (91-100); in the assay on House Fly (10 ppm), 3 (31-40); with House Fly (25 ppm), 7 (71-80); in the assay with House Fly (50 ppm) it was 7 (71-80). Besides, the mortality rating in the assay with House Fly (100 ppm), in the assay with House Fly (250 ppm), in the assay with House Fly (500 ppm) and in the assay on House Fly (1000 ppm) was 9 (91-100) each time. Besides, the insect mortality rating in the assay with Boll Weevil is listed as 9 (91-100 percent mortality).

Regarding `O=[N+]([O-])c1cc(C(F)(F)F)cc2[nH]c(C(F)(F)Cl)nc12` [L, 2-chlorodifluoromethyl-4-nitro-6-trifluoromethylbenzimidazole], the mortality rating stood at 5.5 in the assay with Melon Aphid (25 ppm) and 4.5 in the assay on Milkweed Bug (100 ppm). The average mortality rating in the assay on Aphids - Apple (25 ppm) is listed as 1; in the assay with Aphids - Apple (50 ppm), 1; with Aphids - Apple (100 ppm), 4; in the assay with Aphids - Sour Gum (25 ppm), 7; in the assay with Aphids - Sour Gum (50 ppm), 7; with Aphids - Sour Gum (100 ppm), 9 (91-100 percent mortality). In addition, the average mortality rating with Aphids - Tulip Tree (25 ppm) is on record as 1; in the assay on Aphids - Tulip Tree (50 ppm), 1; with Aphids - Tulip Tree (100 ppm), 5; in the assay with Meadow Spittlebug (25 ppm) it was 0 (0-10 percent); with Meadow Spittlebug (50 ppm), 1; with Meadow Spittlebug (100 ppm), 5.
